According to US6630316B1, “Method for measurement of lymphocyte function” (priority 1996, dated 2003):

Legend:
Assay type in all cases: cell-based
[1] = test system: CD4 positive T lymphocytes; assay: ATP (luciferin:luciferase) response of PBMC separated using CD4 antibody and goat anti-mouse paramagnetic beads; conditions: PHA 1 ug/ml, 24 hours, CD4 separation, unstimulated 8768
[2] = test system: T lymphocytes separated by CD4, CD69, or CD3; assay: ATP response after PHA stimulation of T lymphocytes separated by CD4, CD69 or CD3; conditions: PHA (1%) for 24, 48, 72 or 96 hours; separation by CD3, CD4 or CD69
[3] = test system: T lymphocytes (CD4) in whole blood; assay: T cell response to mitogens in a whole blood sample (CD4 separation, ATP luminescence); conditions: whole blood diluted 1:5, incubated overnight at 37 C; PHA at 1%, IL-2 at 1000 U/ml; control 458,451
[4] = test system: CD8 positive T lymphocytes

## phytohemagglutinin [PHA]
[1]
  Relative Light Units: 38903 Relative Light Units
[2]
  relative light units from stimulated cells versus unstimulated cells: greater than those from the unstimulated cells
[3]
  Relative Light Units: 5,836,682 Relative Light Units
[4]
  stimulation index: > 10
